The test system of data set [1] is human cervical cancer cell line Hela. Briefly: WST-8 antiproliferative assay, Hela. The class given is cell-based. As to conditions: WST-8 assay; for inhibition at 100 µM: read-out: Growth Inhibition (GI%) Hela. Here is the method: (§1) Compounds 7a–j, 8a–j, 9a–c, and 10a–c were evaluated for in vitro anticancer activities against five different cancer cell lines, namely, human colorectal adenocarcinoma cell lines DLD-1, human cervical cancer cell line Hela, human pancreatic cancer cell line SUIT-2, human myelogenous leukemia cell line K562, and human hepatocellular carcinoma cell line HepG2 using WST-8 assay at concentrations of 100 µM to investigate the growth inhibition percent (GI%) of each compound using daunorubicin as a reference drug. […]. […] So, as a conclusion on the SAR study of those compounds as antiproliferative agents, the oxime moiety potentiated the anticancer activity and electron donating groups on R1 and R2 played an important role on this activity. Moreover, the sulfamoyl moiety on R3 seems to play a potential role in the activity of the prepared compounds (Table 1).
(§2) All selected compounds and daunorubicin were recorded as the minimum concentration required to inhibit half cell growth (IC50) and the results are listed in Table 2.
(§3) Evaluation of anticancer activity was performed according to the standard water-soluble tetrazolium-8 (WST-8) assay at the Faculty of Engineering, Yamagata University, Yonezawa, Japan, using an MTP-310 absorbance microplate reader. The EGFR inhibitory assay was carried out at the Faculty of Engineering, Yamagata University, Yonezawa, Japan, according to the protocol enzyme linked immunosorbent assay (ELISA) kits (Douset sandwich ELISA test, recombinant mouse EGFR). The JNK-2 inhibitory assay was performed at the Faculty of Engineering, Yamagata University, Yonezawa, Japan, according to the protocol of enzyme-linked immunosorbent assay (ELISA), the assay was carried out using the JNK-2 kit (Simple Step ELISA, pT183/Y185, Abcam Company, Cambridge, CB2 0AX, UK). Apoptosis and cell cycle analysis was performed at Faculty of medicine, Yamagata University, Yamagata, Japan, using BD FACS melody. Molecular docking was performed at the Nano Medical Engineering Laboratory, RIKEN Cluster for Pioneering Researchers, RIEKN, Japan, using ICM-Pro 3.8 software (MolSoft L.L.C., San Diego, CA, USA).
(§4) According to the standard water-soluble tetrazolium-8 (WST-8) assay, the current synthesized compounds have been tested for their anticancer activities against different five cancer cell lines; DLD-1, Hela, K562, SUIT-2, and HepG2 and daunorubicin was used as reference drug by the WST-8 assay. The five cells were maintained in a suspension culture, (Dulbecco’s modified eagle medium (DMEM) for SUIT-2, Hela, and HepG2 or PRIM for K562 and DLD), supplemented with 5% FBS (Fetal Bovine Serum) containing 1% of a penicillin-streptomycin (1:1) mixture. A 100 μL aliquot of cells (10,000 cells/mL) was added to a 96 well plate and incubated for 24 h at 37 °C in a humidified incubator containing 5% CO2 in the air. […] Then A 10 μL WST-8 solution (mixture of WST-8 and 1-methoxy PMS) was added to each well and the incubation continued for 3 h. The visible absorbance at 450 nm and 630 nm as the reference wavelength of each well was quantified using an MTP-310 absorbance microplate reader. Daunorubicin was used as a positive control. The results of cytotoxicity were recorded as growth inhibition percentages and as IC50 values.
On the technique in general: Formazan colour is commonly taken as a measure of viable cells.

Data set [2] concerns human colorectal adenocarcinoma cell line DLD-1. Briefly: WST-8 antiproliferative assay, DLD-1. The class given is cell-based. To be noted: DLD-1, 100 µM, WST-8 assay, read-out: Growth Inhibition (GI%) DLD-1. Here is the method: as §1, §2, §3
(§5) According to the standard water-soluble tetrazolium-8 (WST-8) assay, the current synthesized compounds have been tested for their anticancer activities against different five cancer cell lines; DLD-1, Hela, K562, SUIT-2, and HepG2 and daunorubicin was used as reference drug by the WST-8 assay. The five cells were maintained in a suspension culture, (Dulbecco’s modified eagle medium (DMEM) for SUIT-2, Hela, and HepG2 or PRIM for K562 and DLD), supplemented with 5% FBS (Fetal Bovine Serum) containing 1% of a penicillin-streptomycin (1:1) mixture. A 100 μL aliquot of cells (10,000 cells/mL) was added to a 96 well plate and incubated for 24 h at 37 °C in a humidified incubator containing 5% CO2 in the air. After 24 h, a 10 μL aliquot of test compound (concentrations varying in the range of 10–150 µM) was added to each of the 96 wells and incubated for 24 h. Then A 10 μL WST-8 solution (mixture of WST-8 and 1-methoxy PMS) was added to each well and the incubation continued for 3 h. The visible absorbance at 450 nm and 630 nm as the reference wavelength of each well was quantified using an MTP-310 absorbance microplate reader. Daunorubicin was used as a positive control. The results of cytotoxicity were recorded as growth inhibition percentages and as IC50 values.

Data set [3] concerns human myelogenous leukemia cell line K562. Briefly: WST-8 antiproliferative assay, K562. The class given is cell-based. As to conditions: Homo sapiens, K562, WST-8 assay; for inhibition at 100 µM: read-out: Growth Inhibition (GI%) K562. Here is the method: as §1, §2, §3, §4
Data set [4] deals with human hepatocellular carcinoma cell line HepG2. Description: WST-8 antiproliferative assay, HepG2. It is filed as cell-based. To be noted: HepG2, 100 µM, WST-8 assay, read-out: Growth Inhibition (GI%) HepG2. The method, then:
as §1, §2, §3, §5

For data set [5], the system named is human pancreatic cancer cell line SUIT-2. Briefly: WST-8 antiproliferative assay, SUIT-2. The class given is cell-based. To be noted: SUIT-2, 100 µM, WST-8 assay, read-out: Growth Inhibition (GI%) SUIT-2. Here is the method: as §1, §2, §3, §5
The test system is the same in data set [6]. Description: WST-8 antiproliferative assay, SUIT-2. The class given is cell-based. To be noted: WST-8 assay, six concentrations 1-100 µM.

pIC50: −log10 of the molar value.

Results on twelve molecules are retold here after article PMC10537604, “Development and Assessment of 1,5–Diarylpyrazole/Oxime Hybrids Targeting EGFR and JNK–2 as Antiproliferative Agents: A Comprehensive Study through Synthesis, Molecular Docking, and Evaluation” (Molecules, 2023).

Molecule `COc1cc(C(C)=O)ccc1OC(=O)c1cc(-c2ccccc2)n(-c2ccccc2)n1` [Compound 7a, 4–Acetyl–2–methoxyphenyl 1,5–diphenyl–1H–pyrazole–3–carboxylate] displayed a melting point of 98 to 100 °C. Also, the inhibition at 100 µM in data set [1] came to 55%. Further, the inhibition at 100 µM in data set [2] worked out at 0%. Also, in data set [3], the inhibition at 100 µM stood at 0%. In data set [4], the inhibition at 100 µM was 5%. Besides, the inhibition at 100 µM in data set [5] stood at 101%.

For the molecule `COc1ccc(-c2cc(C(=O)Oc3ccc(C(C)=O)cc3OC)nn2-c2ccccc2)cc1` [Compound 7c, 4–Acetyl–2–methoxyphenyl–5–(4–methoxyphenyl) 1–phenyl–1H–pyrazole–3–carboxylate], the melting point was 69 to 71 °C. Further, the inhibition at 100 µM in data set [1] came to 52%. Besides, the inhibition at 100 µM in data set [2] was 0%. The inhibition at 100 µM in data set [3] stood at 48%. In data set [4], the inhibition at 100 µM was found to be 0%. In addition, the inhibition at 100 µM in data set [5] came to 68%.

On to `COc1ccc(-c2cc(C(=O)Oc3ccc(C(C)=O)cc3OC)nn2-c2ccccc2)cc1OC` [Compound 7e, 4–Acetyl–2–methoxyphenyl–5–(3,4–dimethoxyphenyl) 1–phenyl–1H–pyrazole–3–carboxylate], for which the melting point was in the range of 74 to 76 °C. The inhibition at 100 µM in data set [1] came to 73%. The inhibition at 100 µM in data set [2] stood at 59.4%. The inhibition at 100 µM in data set [3] worked out at 0%. Further, the inhibition at 100 µM in data set [4] stood at 14%. The inhibition at 100 µM in data set [5] came out at 101%.

With `COc1cc(C(C)=O)ccc1OC(=O)c1cc(-c2ccccc2)n(-c2ccc(S(N)(=O)=O)cc2)n1` [Compound 7f, 4–Acetyl–2–methoxyphenyl–5–phenyl 1–(4–sulfamoylphenyl)–1H–pyrazole–3–carboxylate], the melting point is 69 to 72 °C. Besides, the inhibition at 100 µM in data set [1] was 16%. For the same molecule, in data set [2], the inhibition at 100 µM worked out at 18.6%. The inhibition at 100 µM in data set [3] stood at 24%. For the same molecule, the inhibition at 100 µM in data set [4] was found to be 10%. Further, the inhibition at 100 µM in data set [5] was 75%.

`COc1ccc(-c2cc(C(=O)Oc3ccc(C(C)=O)cc3OC)nn2-c2ccc(S(N)(=O)=O)cc2)cc1` [Compound 7h, 4–Acetyl–2–methoxyphenyl 5–(4–methoxyphenyl) 1–(4–sulfamoylphenyl)–1H–pyrazole–3–carboxylate] returned a melting point of 80 to 83 °C. The inhibition at 100 µM in data set [1] was 0%. Moreover, the inhibition at 100 µM in data set [2] was found to be 0%. Also, the inhibition at 100 µM in data set [3] amounted to 0%. Further, in data set [4], the inhibition at 100 µM turned out to be 0%. Besides, the inhibition at 100 µM in data set [5] was determined as 73%.

In turn, `COc1cc(C(C)=O)ccc1OC(=O)c1cc(-c2ccc(Cl)cc2)n(-c2ccc(S(N)(=O)=O)cc2)n1` [Compound 7i, 4–Acetyl–2–methoxyphenyl–5–(4–chlorophenyl) 1–(4–sulfamoylphenyl)–1H–pyrazole–3–carboxylate] gave a melting point of 71 to 74 °C. In addition, in data set [1], the inhibition at 100 µM worked out at 101%. In addition, in data set [1] (six concentrations 1-100 µM, read-out: IC50 Hela), the pIC50 was 4.60. Besides, the inhibition at 100 µM in data set [2] amounted to 46%. In addition, in data set [3], the inhibition at 100 µM was determined as 101%. In addition, in data set [3] (six concentrations 1-100 µM, read-out: IC50 K562), the pIC50 is 4.03. In addition, the pIC50 in data set [6] was 4.04. The inhibition at 100 µM in data set [4] is 63%. Further, the inhibition at 100 µM in data set [5] was 101%.

In the case of `COc1ccc(-c2cc(C(=O)Oc3ccc(C(C)=O)cc3OC)nn2-c2ccc(S(N)(=O)=O)cc2)cc1OC` [Compound 7j, 4–Acetyl–2–methoxyphenyl–5–(3,4–dimethoxyphenyl) 1–(4–sulfamoylphenyl)–1H–pyrazole–3–carboxylate], the melting point was 75 to 78 °C. For the same molecule, the inhibition at 100 µM in data set [1] was found to be 10%. Further, in data set [2], the inhibition at 100 µM worked out at 0.1%. Besides, the inhibition at 100 µM in data set [3] was found to be 11%. For the same molecule, the inhibition at 100 µM in data set [4] came out at 0%. Besides, in data set [5], the inhibition at 100 µM was 81%.

`COc1ccc(-c2cc(C(=O)Oc3ccc(/C(C)=N/O)cc3OC)nn2-c2ccccc2)cc1` [Compound 8c, (E)–4–(1–(Hydroxyimino)ethyl)–2–methoxyphenyl 5–(4–methoxyphenyl) 1–phenyl–1H–pyrazole–3–carboxylate] had a melting point of 132 to 135 °C. Further, the inhibition at 100 µM in data set [1] amounted to 78%. Further, the inhibition at 100 µM in data set [2] was 0%. In data set [3], the inhibition at 100 µM was 67%. Also, the inhibition at 100 µM in data set [4] was 51%. Further, in data set [5], the inhibition at 100 µM is 61%.

For `COc1ccc(-c2cc(C(=O)Oc3ccc(/C(C)=N/O)cc3OC)nn2-c2ccc(S(N)(=O)=O)cc2)cc1OC` [Compound 8j, (E)–4–(1–(Hydroxyimino)ethyl)–2–methoxyphenyl 5–(3,4–dimethoxyphenyl)–1–(4–sulfamoylphenyl)–1H–pyrazole–3–carboxylate], the melting point lay in the range of 129 to 131 °C. Besides, in data set [1], the inhibition at 100 µM came out at 53%. The inhibition at 100 µM in data set [2] is 9.6%. For the same molecule, the inhibition at 100 µM in data set [3] is 34%. For the same molecule, in data set [4], the inhibition at 100 µM amounted to 60%. Also, the inhibition at 100 µM in data set [5] was determined as 79%.

As to `CC(=O)c1ccc(NC(=O)c2cc(-c3ccccc3)n(-c3ccc(S(N)(=O)=O)cc3)n2)cc1` [Compound 9a, N–(4–Acetylphenyl)–5–phenyl–1–(4–sulfamoylphenyl)–1H–pyrazole–3–carboxamide], the melting point fell in the range of 81 to 83 °C. Also, the inhibition at 100 µM in data set [1] came to 9%. Further, the inhibition at 100 µM in data set [2] turned out to be 60.7%. In addition, the inhibition at 100 µM in data set [3] was 66%. In data set [4], the inhibition at 100 µM amounted to 36%. Also, the inhibition at 100 µM in data set [5] came to 60%.

On to `COc1ccc(-c2cc(C(=O)Nc3ccc(C(C)=O)cc3)nn2-c2ccc(S(N)(=O)=O)cc2)cc1` [Compound 9b, N–(4–Acetylphenyl)–5–(4–methoxyphenyl)–1–(4–sulfamoylphenyl)–1H–pyrazole–3–carboxamide], for which the melting point is 74 to 76 °C. For the same molecule, the inhibition at 100 µM in data set [1] is 0%. Besides, the inhibition at 100 µM in data set [2] was found to be 42.1%. Besides, in data set [3], the inhibition at 100 µM is 31%. Further, in data set [4], the inhibition at 100 µM was 19%. In addition, the inhibition at 100 µM in data set [5] amounted to 45%.

In the case of `COc1ccc(-c2cc(C(=O)Nc3ccc(C(C)=O)cc3)nn2-c2ccc(S(N)(=O)=O)cc2)cc1OC` [Compound 9c, N–(4–Acetylphenyl)–5–(3,4–dimethoxyphenyl)–1–(4–sulfamoylphenyl)–1H–pyrazole–3–carboxamide], the melting point lay in the range of 81 to 83 °C. The inhibition at 100 µM in data set [1] is 9%. Moreover, the inhibition at 100 µM in data set [2] came out at 16.8%. Moreover, the inhibition at 100 µM in data set [3] was 57%. For the same molecule, the inhibition at 100 µM in data set [4] came to 22%. The inhibition at 100 µM in data set [5] came to 42%.

Usually inhibition stands for the drop in the measured response relative to a control, in per cent. As a reminder, the melting point is the temperature, or range, at which the solid turns liquid. Usually pIC50 stands for −log10 of the IC50, conventionally taken in molar units.
